Assays:
[1] = Solubility of the compound in DMSO; assay type: physicochemical
[2] = biological target: T1, Adenosine 5'-monophosphoramidase HINT1 (Homo sapiens, UniProt P49773); test: Binding affinity to full-length human N-terminal His6-tagged Hint1 expressed in Escherichia coli Rosetta 2 pLysS cells by isothermal titration calorimetry
[3] = Aqueous solubility of the compound; assay type: physicochemical; conditions: buffer
[4] = biological target: T1, Adenosine 5'-monophosphoramidase HINT1; test: Inhibition of human N-terminal His6-tagged Hint1 expressed in Escherichia coli Rosetta 2 pLysS cells by fluorescence assay
Mus musculus [5] = test: Effect on spared nerve injury-induced ICR mouse model of neuropathic pain administered intrathecally for 3 days by Von Frey test relative to control; assay type: functional
Mus musculus [6] = test: Effect on spared nerve injury-induced ICR mouse model of neuropathic pain administered intrathecally for 3 days by Von Frey test; assay type: functional; conditions: central, 72 h
Mus musculus [7] = test: Suppression of morphine-induced analgesic tolerance in ICR mouse model of spared nerve injury-induced neuropathic pain assessed as reduction in mechanical hypersensitivity administered intrathecally for 3 days prior to morphine challenge on day 4 by Von Frey test relative to control; assay type: functional
Mus musculus [8] = test: Suppression of morphine-induced analgesic tolerance in ICR mouse model of spared nerve injury-induced neuropathic pain assessed as reduction in mechanical hypersensitivity administered intrathecally for 3 days prior to morphine challenge on day 4 by Von Frey test; assay type: functional; conditions: central
[9] = Solubility of the compound in water; assay type: physicochemical; conditions: buffer

T1 sequence (P49773 whole entry): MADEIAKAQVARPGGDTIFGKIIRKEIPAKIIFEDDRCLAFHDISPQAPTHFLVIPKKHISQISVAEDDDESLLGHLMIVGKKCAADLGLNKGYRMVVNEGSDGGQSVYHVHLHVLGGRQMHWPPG

For CCNC(=O)OC[C@H]1O[C@@H](n2cnc3c(N)nc(N)nc32)[C@H](O)[C@@H]1O, the solubility [1] was “Soluble” and the Kd [2] was 2.45 µM.
For Nc1nc2c(ncn2[C@@H]2O[C@H](CNS(=O)(=O)NC(=O)CCc3c[nH]c4ccccc34)[C@@H](O)[C@H]2O)c(=O)[nH]1, the solubility [3] was “Soluble”.
Molecule Nc1ncnc2c1ncn2[C@@H]1O[C@H](CNS(=O)(=O)NC(=O)CCCC[C@@H]2SC[C@@H]3NC(=O)N[C@@H]32)[C@@H](O)[C@H]1O has an IC50 [4] of 25.5 µM.
For Nc1nc2c(ncn2[C@@H]2O[C@H](COC(=O)NCCc3c[nH]cn3)[C@@H](O)[C@H]2O)c(=O)[nH]1, the solubility [1] was “Soluble” and the Kd [2] was 3.43 µM.
For Nc1nc2c(ncn2[C@@H]2O[C@H](COC(=O)NCCc3c[nH]c4ccccc34)[C@@H](O)[C@H]2O)c(=O)[nH]1, the “fold change (FC)” value (Mus musculus [5]) was 0.7, the solubility [1] was “Soluble” and the ED50 (Mus musculus [6]) was 2.3 mg/kg. The “fold change (FC)” value (Mus musculus [7]) was 0.8 and the ED50 (Mus musculus [8]) was 2.6 mg/kg.
With Nc1nc(N)c2ncn([C@@H]3O[C@H](COC(=O)Nc4ccccc4)[C@@H](O)[C@H]3O)c2n1 the solubility [1] was “Soluble” and the Kd [2] was 1.01 µM.
With O=C(CCc1c[nH]c2ccccc12)NS(=O)(=O)OC[C@H]1O[C@@H](n2cnc3c2ncn2ccnc32)[C@@H](O)C1O (stereo partly specified) the ED50 (Mus musculus [6]) was 3.6 mg/kg, the ED50 (Mus musculus [8]) was 4.6 mg/kg and the solubility [3] was “Soluble”.
For Nc1nc2c([C@@H]3O[C@H](COS(=O)(=O)NC(=O)CCc4c[nH]c5ccccc45)[C@@H](O)[C@H]3O)scc2c(=O)[nH]1, the solubility [9] was “Soluble” and the Kd [2] was 5.2 µM.
With CCN(CC)C(=O)OC[C@H]1O[C@@H](n2cnc3c(=O)[nH]c(N)nc32)[C@H](O)[C@@H]1O the solubility [1] was “Soluble” and the Kd [2] was 47.2 µM.
In the case of Nc1nc2c(ncn2C2OC(COS(=O)(=O)NC(=O)CCc3c[nH]c4ccccc34)C(O)C2O)c(=O)[nH]1 (single isomer, unassigned), the solubility [3] is reported as “Soluble”.
Work on Nc1nc2c(ncn2[C@@H]2O[C@H](COP(=O)(O)O)[C@@H](O)[C@H]2O)c(=O)[nH]1 yielded a Kd [2] of 67 µM.
With Nc1nc2c(ncn2[C@@H]2O[C@H](CSP(=O)(O)NCCc3c[nH]c4ccccc34)[C@@H](O)[C@H]2O)c(=O)[nH]1 the solubility [9] was “Soluble”.
For Nc1nc2c(ncn2[C@@H]2O[C@H](COC(=O)NCc3ccccc3)[C@@H](O)[C@H]2O)c(=O)[nH]1, the solubility [1] was “Insoluble” and the Kd [2] was 8.09 µM.
In the case of Nc1nc2c(ncn2[C@@H]2O[C@H](COP(=O)(O)NCCc3c[nH]c4ccccc34)[C@@H](O)[C@H]2O)c(=O)[nH]1, the solubility [3] is reported as “Soluble”.

Source: ChEMBL document CHEMBL4476871, “SULFAMIDE AND SULFAMATE INHIBITORS OF hHint1” (2018)
